Measured values from patent US9315678B2, “Affinity of hardly soluble or insoluble substance solvent by water-soluble xylan” (Ezaki Glico Co., Ltd., priority 2006, dated 2016).

Experiments:
Assay type in all cases: physicochemical
[1] = Carbon nanotube solubilizing capability of saccharide aqueous solutions (absorbance of supernatant at 500 nm); conditions: for A500: about 4 mg SWCNT-1 per 1 mL, ultra sound 5 min; for amount of the solubilized carbon nanotube (in words): at the investigated concentrations of Table 1
Protocol: (§1) The amount of the carbon nanotube dissolved in the solution can be measured, for example, by recovering the carbon nanotube by centrifugation at 70,000×g for 15 minutes and measuring the weight thereof. Alternatively, as described in the literature “Chem. Commun.”, P. 193 (2001), the concentration of the carbon nanotube has quite a high correlation with the absorbance at 500 nm, and the water-soluble xylan has almost no absorption at the wavelength. Thus, the concentration of the carbon nanotube is easily determined by measuring the absorbance of the solution at 500 nm, unless the solution contains any other substances having absorption at around 500 nm. In the case where a hardly soluble or insoluble substance is used as another substance, the method for measuring the concentration of the substance in the solution can be appropriately selected in depending on the substance.
A solubilizing capability of the water-soluble xylan was compared with those of other saccharides. As the water-soluble xylan, glucuronoxylan (manufactured by Institute of Chemistry, Slovak Academy of Sciences; the number average molecular weight: 18,000; xylose residue: 4-O-methyl-D-glucuronic acid reside=10:1; no acetylation) was used. For comparison, various saccharide solutions of amylose (the number average molecular weight of 2,900), pectin (derived from citrus fruit), polygalacturonic acid, methylcellulose, fucoidan, xanthan gum, carboxymethyl cellulose, an Abelmoschus manihot extraction liquid, a Hydrangea paniculata extraction liquid, gum arabic, β-1,3-glucan (schizophyllan, curdlan), and xylo-oligosaccarides (polymerization degrees of 2 and 5) were used.
To 1 mL of each of the saccharide aqueous solutions, about 4 mg of the single layer carbon nanotube powder (SWCNT-1 manufactured by Shenzhen Nanotech Port Co., Ltd.) was added and then stirred for about 10 seconds with a Vortex mixer. The mixture was applied ultra sound with a bath type sonicator (UT-205 manufactured by Sharp Corporation) at a room temperature (15° C. to 20° C.) for 5 minutes to dissolve the carbon nanotube. The obtained solution was centrifuged at 2,200×g for 10 minutes, and then the supernatant thereof was collected. The amount of the dissolved carbon nanotube was estimated by measuring the absorbance of the supernatant at 500 nm. The saccharides vary from one another in solubility to water.
Within the same concentration range, the absorbances at 500 nm of the solutions containing another saccharide were 3 or less.

[2] = Preparation of carbon nanotube solution with water-soluble xylan: absorbance at 500 nm and dissolved carbon nanotube
Protocol: as §1
As water-soluble xylan, glucuronoxylan (manufactured by Institute of Chemistry, Slovak Academy of Sciences; the number average molecular weight: 18,000; xylose residue: 4-O-methyl-D-glucuronic acid reside=10:1; no acetylation; derived from beech) was used. To 1 L of a 0.4 mg/mL glucuronoxylan aqueous solution, 2 g of a single-layer carbon nanotube powder (SWCNT-1 manufactured by Shenzhen Nanotech Port Co., Ltd.) was added, and then stirred with a magnetic stirrer. The mixture was sequentially applied ultra sound by an ultra sound dispersing machine (Model UH-600SR, HO-F36 flanged chip, RD-36 continuous holder; manufactured by SMT Co., Ltd.) at a room temperature (15° C. to 20° C.) for 130 minutes at a flow rate of 1 L/min to dissolve and disperse the carbon nanotube. The obtained solution was centrifuged at 2,200×g for 15 minutes, and then collected the supernatant. The supernatant was a blackish solution.
The obtained solution was centrifuged at 70,000×g for 10 minutes to collect the carbon nanotube as a precipitate. To the obtained precipitate, 50 mL of the aforementioned glucuronoxylan aqueous solution was added, and the carbon nanotube was dispersed by applying an ultra sound at a room temperature (15° C. to 20° C.) for 5 minutes with a bath type sonicator (Branson 1200).
To 10 L of the water-soluble xylan solution prepared by Preparative Example 1, 5 g of a single-layer carbon nanotube powder (SWCNT-1 manufactured by Shenzhen Nanotech Port Co., Ltd.) was added and then stirred. The mixture was sequentially applied ultra sound by an ultra sound dispersing machine (Model UH-600SR, HO-F36 flanged chip, RD-36 continuous holder; manufactured by SMT Co., Ltd.) at a room temperature (15° C. to 20° C.) for 90 minutes at a flow rate of 1 L/min to dissolve and disperse the carbon nanotube. The obtained solution was centrifuged at 2,200×g for 15 minutes, and then the supernatant was collected. […]

[3] = Carbon nanotube solubilizing capability of saccharide aqueous solutions (absorbance of supernatant at 500 nm); conditions: Example 2-2, FIG. 4; concentration dependency
[4] = saccharide 0.40 mg/mL, supernatant after 2,200xg 10 min
[5] = saccharide 2.50 mg/mL, supernatant
[6] = saccharide 10.00 mg/mL, supernatant
[7] = saccharide 1.00 mg/mL, supernatant
[8] = saccharide 2.00 mg/mL, supernatant
[9] = saccharide 5 mg/mL (5.00), supernatant
[10] = Example 1-1: 0.4 mg/mL glucuronoxylan, 2 g SWCNT-1 per 1 L, ultra sound 130 min, supernatant after 2,200xg 15 min
[11] = Example 1-1: 70,000xg precipitate re-dispersed in 50 mL glucuronoxylan solution, ultra sound 5 min

## schizophyllan
[1]; saccharide 0.20 mg/mL, supernatant
  A500: 0.12
[1]; [4]
  A500: 0.95

## pectin
[1]
  amount of the solubilized carbon nanotube (in words): close to that when using the water-soluble xylan
[1]; [5]
  A500: 3.48
[1]; [6]
  A500: 6.28

## methylcellulose
[1]; [7]
  A500: 0.16
[1]; [8]
  A500: 0.80

## fucoidan
[1]
  amount of the solubilized carbon nanotube (in words): close to that when using the water-soluble xylan
[1]; [5]
  A500: 1.33
[1]; [6]
  A500: 6.80

## carboxymethyl cellulose [Carboxy Methylcellulose]
[1]
  amount of the solubilized carbon nanotube (in words): close to that when using the water-soluble xylan
[1]; [5]
  A500: 5.64
[1]; [6]
  A500: 2.37

## polygalacturonic acid
[1]
  amount of the solubilized carbon nanotube (in words): close to that when using the water-soluble xylan
[1]; saccharide 1.90 mg/mL, supernatant
  A500: 2.18
[1]; saccharide 2.70 mg/mL, supernatant
  A500: 5.26

## OC1OC[C@@H](O[C@@H]2OC[C@@H](O)[C@H](O)[C@H]2O)[C@H](O)[C@H]1O (stereo partly drawn)
[1]
  amount of the solubilized carbon nanotube (in words): did not exhibit solubilization of carbon nanotube at all
[1]; saccharide 16 mg/mL, supernatant
  A500: 0.00

## OC1OC[C@@H](O[C@@H]2OC[C@@H](O[C@@H]3OC[C@@H](O[C@@H]4OC[C@@H](O[C@@H]5OC[C@@H](O)[C@H](O)[C@H]5O)[C@H](O)[C@H]4O)[C@H](O)[C@H]3O)[C@H](O)[C@H]2O)[C@H](O)[C@H]1O (stereo partly drawn)
[1]
  amount of the solubilized carbon nanotube (in words): did not exhibit solubilization of carbon nanotube at all
[1]; [9]
  A500: 0.00

## curdlan
[1]; [4]
  A500: 0.02

## xanthan gum
[1]
  amount of the solubilized carbon nanotube (in words): close to that when using the water-soluble xylan
[1]; [7]
  A500: 2.79
[1]; [8]
  A500: 6.91

## glucuronoxylan [Water-soluble Xylan]
[1]
  amount of the solubilized carbon nanotube (in words): largest
[1]; [4]
  A500: 10.70
[2]; [10]
  absorbance at 500 nm: 7.57
  carbon nanotube contained in solution: about 282 μg/mL
[2]; [11]
  absorbance at 500 nm: 122
  carbon nanotube contained in solution: about 4.5 mg/mL
[3]
  saccharide concentration showing the maximum absorbance at 500 nm: 0.2 mg/mL

## amylose
[1]; [9]
  A500: 0.02
[1]; [6]
  A500: 0.06

## gum arabic
[1]
  amount of the solubilized carbon nanotube (in words): close to that when using the water-soluble xylan
[1]; [7]
  A500: 0.73
[1]; [6]
  A500: 4.30
